These results are taken from patent publication US9655887B2, “Pharmaceutical composition and the use thereof, and application regime of said pharmaceutical composition for on-demand contraception” (BAYER PHARMA AKTIENGESELLSCHAFT, priority 2013, dated 2017).

Molecules are shown by their SMILES.

In the experiment the target is EP2 subtype of the human PGE2 receptor (hEP2 receptor) (Homo sapiens, UniProt P43116). Briefly: cAMP antagonism test, human prostaglandin E2 (subtype EP2) receptor signal. The experiment is classed as cell-based. The text has this: 1. Detection of Antagonism to the Human Prostaglandin E2 (Subtype EP2) Receptor Signal
Chain of EP2 subtype of the human PGE2 receptor (hEP2 receptor) (P43116 whole entry): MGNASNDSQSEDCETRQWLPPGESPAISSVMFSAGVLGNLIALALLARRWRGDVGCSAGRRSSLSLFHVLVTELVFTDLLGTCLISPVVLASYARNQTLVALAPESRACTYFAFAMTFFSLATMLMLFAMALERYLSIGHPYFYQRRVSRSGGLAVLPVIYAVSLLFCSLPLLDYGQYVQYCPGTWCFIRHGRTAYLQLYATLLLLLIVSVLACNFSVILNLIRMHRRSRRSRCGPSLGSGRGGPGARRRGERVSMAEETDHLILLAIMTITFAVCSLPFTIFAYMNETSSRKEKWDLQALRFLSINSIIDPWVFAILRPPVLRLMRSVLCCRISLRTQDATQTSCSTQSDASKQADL
The binding of PGE2 to the EP2 subtype of the human PGE2 receptor induces the activation of membrane-located adenylate cyclases and leads to the formation of cAMP. In the presence of the phosphodiesterase inhibitor IBMX, the cAMP accumulated owing to this stimulation and released by cell lysis is used in a competitive detection method. In this test, the cAMP present in the lysate competes with a fluorescence-labelled cAMP (cAMP-d2) for binding to an Eu cryptate-labelled anti-cAMP antibody.
In the absence of cellular cAMP, a maximal signal is produced, which is attributable to the binding of this cAMP-d2 molecule to the antibody. After excitation of the […] at 337 nm, there is a fluorescence resonance energy transfer (FRET) to the Eu cryptate molecules of the anti-cAMP antibody (labelled therewith), followed by a long-lasting emission signal at 665 nm (and at […]). Both signals are measured in a suitable measurement instrument with a time delay, i.e. after decay of the background fluorescence. Any increase in the low FRET signal caused by prostaglandin E2 administration (measured as well ratio change=emission665nm/emission620nm*10000) indicates the action of antagonists.
1.2.1. Test for Antagonism (Data Per Well of a 384-Well Plate):
To a test plate with the substance solutions already added (0.05 μl; 100% DMSO, concentration range from 0.8 nM-16.5 nM) were added 4 μl of a cAMP-d2/cell suspension (625000 cells/ml). After a 20-minute preincubation at room temperature (RT), 2 μl of a 3×PGE2 solution (1.5 nM, in PBS-IBMX) were added and incubated in the presence of the agonist for a further 60 mins at RT (volume: […]). Next the reaction was stopped by addition of 2 μl of lysis buffer and incubated for a further 20 mins at RT before the actual measurement (volume: ˜8 μl).
A word on the IC50: it is the concentration that gives 50% inhibition. A higher IC50 goes with lower potency. `COCCNC(=O)c1ccc2nn(CC3CCN(C(=O)c4ccc(-c5ccc(F)cc5)cc4F)CC3)cc2c1C` [Example E40, 2-({1-[(3,4′-difluorobiphenyl-4-yl)carbonyl]piperidin-4-yl}methyl)-N-(2-methoxyethyl)-4-methyl-2H-indazole-5-carboxamide] returned an IC50 of over 50 nM.
The result for `COCCNC(=O)c1ccc2nn(CC3CCN(C(=O)c4ccc(-c5ccc(OC)cc5)cc4F)CC3)cc2c1C` [Example E41, 2-({1-[(3-fluoro-4′-methoxybiphenyl-4-yl)carbonyl]piperidin-4-yl}methyl)-N-(2-methoxyethyl)-4-methyl-2H-indazole-5-carboxamide] reads over 50 nM; that for `COCCNC(=O)c1ccc2nn(CC3CCN(C(=O)c4ccc(-c5ccccc5OC(F)(F)F)cc4F)CC3)cc2c1C` [Example E44, 2-[(1-{[3-fluoro-2′-(trifluoromethoxy)biphenyl-4-yl]carbonyl}piperidin-4-yl)methyl]-N-(2-methoxyethyl)-4-methyl-2H-indazole-5-carboxamide], over 50 nM.
With `COCCNC(=O)c1ccc2nn(CC3CCN(C(=O)c4ccc(-c5ccccc5F)cc4)CC3)cc2c1C` [Example E45, 2-({1-[(2′-fluorobiphenyl-4-yl)carbonyl]piperidin-4-yl}methyl)-N-(2-methoxyethyl)-4-methyl-2H-indazole-5-carboxamide], the IC50 is over 50 nM.
`COCCNC(=O)c1ccc2nn(CC3CCN(C(=O)c4ccc(-c5ccc(F)cc5F)cc4)CC3)cc2c1C` [Example E46, 2-({1-[(2′,4′-difluorobiphenyl-4-yl)carbonyl]piperidin-4-yl}methyl)-N-(2-methoxy-ethyl)-4-methyl-2H-indazole-5-carboxamide] showed an IC50 of over 50 nM.
In turn, `COCCNC(=O)c1ccc2nn(CC3CCN(C(=O)c4ccc(-c5ccccc5)c(F)c4)CC3)cc2c1C` [Example E47, 2-({1-[(2-fluorobiphenyl-4-yl)carbonyl]piperidin-4-yl}methyl)-N-(2-methoxyethyl)-4-methyl-2H-indazole-5-carboxamide] came in with an IC50 of over 50 nM.
Regarding `COCCNC(=O)c1ccc2nn(CC3CCN(C(=O)c4ccc(-c5ccccc5C)cc4)CC3)cc2c1C` [Example E48, N-(2-methoxyethyl)-4-methyl-2-({1-[(2′-methylbiphenyl-4-yl)carbonyl]piperidin-4-yl}-methyl)-2H-indazole-5-carboxamide], the IC50 was over 50 nM.
`COCCNC(=O)c1ccc2nn(CC3CCN(C(=O)c4ccc(N5CCOCC5)cc4F)CC3)cc2c1C` [Example E51, 2-({1-[2-fluoro-4-[morpholin-4-yl)benzoyl]piperidin-4-yl}methyl)-N-(2-methoxyethyl)-4-methyl-2H-indazole-5-carboxamide] returned an IC50 of over 50 nM.
In turn, `COCCNC(=O)c1ccc2nn(CC3CCN(C(=O)c4ccc(Br)cc4)CC3)cc2c1C` [Example E52, 2-{[1-(4-bromobenzoyl)piperidin-4-yl]methyl}-N-(2-methoxyethyl)-4-methyl-2H-indazole-5-carboxamide] came in with an IC50 of over 50 nM.
The result for `COCCNC(=O)c1ccc2nn(CC3CCN(C(=O)c4ccc(OC(F)(F)F)cc4)CC3)cc2c1C` [Example E53, N-(2-methoxyethyl)-4-methyl-2-({1-[4-(trifluoromethoxy)benzoyl]piperidin-4-yl}-methyl)-2H-indazole-5-carboxamide] reads over 50 nM.
For the molecule `COCCNC(=O)c1ccc2nn(CC3CCN(C(=O)c4ccc(Cl)cc4)CC3)cc2c1C` [Example E54, 2-{[1-(4-chlorobenzoyl)piperidin-4-yl]methyl}-N-(2-methoxyethyl)-4-methyl-2H-indazole-5-carboxamide], the IC50 is over 50 nM.
The result for `COCCNC(=O)c1ccc2nn(CC3CCN(C(=O)c4ccc(SC(F)(F)F)cc4)CC3)cc2c1C` [Example E55, N-(2-methoxyethyl)-4-methyl-2-[(1-{4-[(trifluoromethyl)sulphanyl]benzoyl}piperidin-4-yl)methyl]-2H-indazole-5-carboxamide] reads over 50 nM; that for `Cc1c(C(=O)NCCOCC2CC2)ccc2nn(CC3CCN(C(=O)c4ccc(Cl)cc4)CC3)cc12` [Example E59, 2-{[1-(4-chlorobenzoyl)piperidin-4-yl]methyl}-N-[2-(cyclopropylmethoxy)ethyl]-4-methyl-2H-indazole-5-carboxamide], over 50 nM.
The molecule `Cc1ccc(C(=O)N2CCC(Cn3cc4c(C)c(C(=O)NCCOCC5CC5)ccc4n3)CC2)cc1` [Example E60, N-[2-(cyclopropylmethoxy)ethyl]-4-methyl-2-{[1-(4-methylbenzoyl)piperidin-4-yl]-methyl}-2H-indazole-5-carboxamide] returned an IC50 of over 50 nM.
On to `Cc1c(C(=O)NCCOCC2CC2)ccc2nn(CC3CCN(C(=O)c4ccc(Oc5ccc(F)cc5)cc4)CC3)cc12` [Example E61, N-[2-(cyclopropylmethoxy)ethyl]-2-({1-[4-(4-fluorophenoxy)benzoyl]piperidin-4-yl}-methyl)-4-methyl-2H-indazole-5-carboxamide], for which the IC50 was over 50 nM.
As to `Cc1c(C(=O)NCCOCC2CC2)ccc2nn(CC3CCN(C(=O)c4ccc(C(F)(F)F)cc4)CC3)cc12` [Example E62, N-[2-(cyclopropylmethoxy)ethyl]-4-methyl-2-({1-[4-(trifluoromethyl)benzoyl]piperidin-4-yl}methyl)-2H-indazole-5-carboxamide], the IC50 is over 50 nM.
With `Cc1c(C(=O)NCCOCC2CC2)ccc2nn(CC3CCN(C(=O)c4ccc(-c5ccc(F)cc5)cc4)CC3)cc12` [Example E63, N-[2-(cyclopropylmethoxy)ethyl]-2-({1-[(4′-fluorobiphenyl-4-yl)carbonyl]piperidin-4-yl}methyl)-4-methyl-2H-indazole-5-carboxamide], the IC50 was over 50 nM.
With `Cc1c(C(=O)NCCOCC2CC2)ccc2nn(CC3CCN(C(=O)c4ccc(C5CC5)cc4)CC3)cc12` [Example E64, 2-{[1-(4-cyclopropylbenzoyl)piperidin-4-yl]methyl}-N-[2-(cyclopropylmethoxy)ethyl]-4-methyl-2H-indazole-5-carboxamide], the IC50 was over 50 nM.
Consider `Cc1c(C(=O)NCCOCC(F)(F)F)ccc2nn(CC3CCN(C(=O)c4ccc(Cl)cc4)CC3)cc12` [Example E65, 2-{[1-(4-chlorobenzoyl)piperidin-4-yl]methyl}-4-methyl-N-[2-(2,2,2-trifluoroethoxy)-ethyl]-2H-indazole-5-carboxamide], for which the IC50 was over 50 nM.
`Cc1ccc(C(=O)N2CCC(Cn3cc4c(C)c(C(=O)NCCOCC(F)(F)F)ccc4n3)CC2)cc1` [Example E66, 4-methyl-2-{[1-(4-methylbenzoyl)piperidin-4-yl]methyl}-N-[2-(2,2,2-trifluoroethoxy)-ethyl]-2H-indazole-5-carboxamide] gave an IC50 of over 50 nM.
The result for `Cc1c(C(=O)NCCOCC(F)(F)F)ccc2nn(CC3CCN(C(=O)c4ccc(Oc5ccc(F)cc5)cc4)CC3)cc12` [Example E67] reads over 50 nM; that for `Cc1c(C(=O)NCCOCC(F)(F)F)ccc2nn(CC3CCN(C(=O)c4ccc(C(F)(F)F)cc4)CC3)cc12` [Example E68, 4-methyl-N-[2-(2,2,2-trifluoroethoxy)ethyl]-2-({1-[4-(trifluoromethyl)benzoyl]-piperidin-4-yl}methyl)-2H-indazole-5-carboxamide], over 50 nM; that for `Cc1c(C(=O)NCCOCC(F)(F)F)ccc2nn(CC3CCN(C(=O)c4ccc(-c5ccc(F)cc5)cc4)CC3)cc12` [Example E69, 2-({1-[(4′-fluorobiphenyl-4-yl)carbonyl]piperidin-4-yl}methyl)-4-methyl-N-[2-(2,2,2-trifluoroethoxy)ethyl]-2H-indazole-5-carboxamide], over 50 nM.
The same measure for `Cc1c(C(=O)NCCOCC(F)(F)F)ccc2nn(CC3CCN(C(=O)c4ccc(C5CC5)cc4)CC3)cc12` [Example E70, 2-{[1-(4-cyclopropylbenzoyl)piperidin-4-yl]methyl}-4-methyl-N-[2-(2,2,2-trifluoro-ethoxy)ethyl]-2H-indazole-5-carboxamide]: over 50 nM; for `Cc1c(C(=O)NCCOC(C)C)ccc2nn(CC3CCN(C(=O)c4ccc(Cl)cc4)CC3)cc12` [Example E71, 2-{[1-(4-chlorobenzoyl)piperidin-4-yl]methyl}-N-(2-isopropoxyethyl)-4-methyl-2H-indazole-5-carboxamide]: over 50 nM; for `Cc1ccc(C(=O)N2CCC(Cn3cc4c(C)c(C(=O)NCCOC(C)C)ccc4n3)CC2)cc1` [Example E72, N-(2-isopropoxyethyl)-4-methyl-2-{[1-(4-methylbenzoyl)piperidin-4-yl]methyl}-2H-indazole-5-carboxamide]: over 50 nM.
Molecule `Cc1c(C(=O)NCCOC(C)C)ccc2nn(CC3CCN(C(=O)c4ccc(Oc5ccc(F)cc5)cc4)CC3)cc12` [Example E73, 2-({1-[4-(4-fluorophenoxy)benzoyl]piperidin-4-yl}methyl)-N-(2-isopropoxyethyl)-4-methyl-2H-indazole-5-carboxamide] showed an IC50 of over 50 nM.
